Experiments:
[1] = refractive index (other wavelength) (dimensionless); conditions: 108 kPa, Liquid, Wavelength=632.8 nm, minimum deviation method
[2] = refractive index (other wavelength) (dimensionless); xn = mol fraction of the nth substance listed; conditions: 108 kPa, Liquid, Wavelength=632.8 nm, minimum deviation method, x2 = 0

CCCCn1cc[n+](C)c1.F[P-](F)(F)(F)(F)F [1-butyl-3-methylimidazolium hexafluorophosphate]
[1]
Conditions | refractive index
315.21 K | 1.4038
317.26 K | 1.4032
319.23 K | 1.4027
321.47 K | 1.4021
323.47 K | 1.4016
325.4 K | 1.4011

CCO [ethanol]
[1]
Conditions | refractive index
315.24 K | 1.3509
317.21 K | 1.3501
319.26 K | 1.3492
321.31 K | 1.3483
323.3 K | 1.3474
325.39 K | 1.3465

CCO [ethanol] + CCCCn1cc[n+](C)c1.F[P-](F)(F)(F)(F)F
[2]
Conditions | refractive index
315.24 K | 1.3509
317.21 K | 1.3501
319.26 K | 1.3492
321.31 K | 1.3483
323.3 K | 1.3474
325.39 K | 1.3465

— the NIST ThermoML archive (doi:10.1016/j.jct.2017.07.014)
